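How tested: cells in 96-well plates exposed to compound for 48 hours at five concentrations. At the GI50, growth is halved.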 Activity calls are given as the source filed them. Rule as the data show it: active = GI50 up to about 1.1 µM and inactive = higher.
Assays:
Assay in all cases: inhibition of tumour cell growth, NCI panel, 48 h
CAKI-1 = test system: CAKI-1
COLO 205 = test system: COLO 205
HCC 2998 = test system: HCC 2998
HCT-116 = test system: HCT-116
HCT-15 = test system: HCT-15
HOP-62 = test system: HOP-62
HT-29 = test system: HT-29
MOLT-4 = test system: MOLT-4
NCI-H460 = test system: NCI-H460
OVCAR-4 = test system: OVCAR-4
OVCAR-5 = test system: OVCAR-5
OVCAR-8 = test system: OVCAR-8
SF-539 = test system: SF-539
SN12C = test system: SN12C
SNB-19 = test system: SNB-19
SNB-75 = test system: SNB-75
SR = test system: SR
UO-31 = test system: UO-31
A498 = test system: A498

Row | SMILES | GI50 (CAKI-1) | GI50 (COLO 205) | GI50 (HCC 2998) | GI50 (HCT-116) | GI50 (HCT-15) [µM] | GI50 (HOP-62) | GI50 (HT-29) | GI50 (MOLT-4) | GI50 (NCI-H460) | GI50 (OVCAR-4) | GI50 (OVCAR-5) | GI50 (OVCAR-8) | GI50 (SF-539) | GI50 (SN12C) | GI50 (SNB-19) | GI50 (SNB-75) | GI50 (SR) | GI50 (UO-31) | GI50 (A498)
1 | CCOC(=O)Cc1nn2c(=O)cc(C)nc2s1 | > 100 µM (inactive) | > 100 µM (inactive) | > 100 µM (inactive) | > 100 µM (inactive) | > 100 | > 100 µM (inactive) | > 100 µM (inactive) | > 100 µM (inactive) | > 100 µM (inactive) | > 100 µM (inactive) | > 100 µM (inactive) | > 100 µM (inactive) | 55.2 µM (inactive) | > 100 µM (inactive) | > 100 µM (inactive) | > 100 µM (inactive) | > 100 µM (inactive) | > 100 µM (inactive) | 
2 | CC(C)C1N(C)c2ccc(Cl)cc2[C@H]2c3ccccc3CCN12 (some centres not stated) |  | 36.4 µM (inactive) |  | 40.2 µM (inactive) | 37.1 | > 100 µM (inactive) | 22.1 µM (inactive) | 37.8 µM (inactive) | 94.8 µM (inactive) | 69.2 µM (inactive) | 38.3 µM (inactive) | > 100 µM (inactive) | > 100 µM (inactive) | 45.2 µM (inactive) | > 100 µM (inactive) | 61.8 µM (inactive) | 29.9 µM (inactive) | 98.4 µM (inactive) | 78 µM (inactive)
3 | CCCCCCCCCCCCNC(=O)CCC(NC(=O)c1ccc(N(C)Cc2cnc3nc(N)nc(N)c3n2)cc1)C(=O)NCCCCCCCCCCCC (configuration not stated) |  | > 100 µM (inactive) | 45.7 µM (inactive) | 26.6 µM (inactive) | > 100 | 23.6 µM (inactive) | > 100 µM (inactive) | > 100 µM (inactive) |  | 64.1 µM (inactive) | > 100 µM (inactive) | 16.9 µM (inactive) | > 100 µM (inactive) | 91.8 µM (inactive) | 22.9 µM (inactive) | 3.68 µM (inactive) | 11.9 µM (inactive) | > 100 µM (inactive) | 42.8 µM (inactive)
4 | COC(=O)C1=C(C(=O)OC)C(C(=O)c2ccc(Br)cc2)N2N=C(c3ccc(Cl)cc3)C=CC12 (configuration not stated) | 80.7 µM (inactive) | > 100 µM (inactive) | > 100 µM (inactive) | > 100 µM (inactive) | > 100 | > 100 µM (inactive) |  | > 100 µM (inactive) | > 100 µM (inactive) | > 100 µM (inactive) | > 100 µM (inactive) | > 100 µM (inactive) |  | > 100 µM (inactive) | > 100 µM (inactive) | 35.2 µM (inactive) | 40.6 µM (inactive) | > 100 µM (inactive) | > 100 µM (inactive)
5 | O=c1c2cc(S(=O)(=O)O)ccc2nc(COc2ccc(Oc3ccc(Cl)cc3Cl)cc2)n1-c1ccc(Cl)cc1Oc1c(Cl)cccc1Cl | 30.3 µM (inactive) | 17.5 µM (inactive) |  | 24.8 µM (inactive) | 21 | 33.7 µM (inactive) | 20 µM (inactive) | 36 µM (inactive) | 19.5 µM (inactive) | 29.4 µM (inactive) | 23.6 µM (inactive) | 23.3 µM (inactive) | 16.5 µM (inactive) | 30.1 µM (inactive) | 40.9 µM (inactive) |  | 34 µM (inactive) | 18.3 µM (inactive) | 25.3 µM (inactive)
6 | C[C@H](c1ccccc1)N1C(=O)[C@@H](O)[C@H]1[C@H](CO)OCc1ccccc1 |  | > 100 µM (inactive) |  | > 100 µM (inactive) | > 100 | > 100 µM (inactive) | > 100 µM (inactive) | > 100 µM (inactive) |  | > 100 µM (inactive) | > 100 µM (inactive) | > 100 µM (inactive) |  | > 100 µM (inactive) | > 100 µM (inactive) | > 100 µM (inactive) | > 100 µM (inactive) | > 100 µM (inactive) | 20 µM (inactive)
7 | Cc1cccc2c1Oc1ccccc1C2NC(=O)c1ccc([N+](=O)[O-])cc1 (configuration not stated) | 69 µM (inactive) |  |  | > 100 µM (inactive) | > 100 | 28.8 µM (inactive) | > 100 µM (inactive) | > 100 µM (inactive) | > 100 µM (inactive) | 32.2 µM (inactive) | > 100 µM (inactive) | > 100 µM (inactive) |  | 29.3 µM (inactive) | > 100 µM (inactive) |  | > 100 µM (inactive) | > 100 µM (inactive) | 76.4 µM (inactive)
8 | N#Cc1c(-c2ccc(Cl)cc2)c2c([nH]c1=O)-c1ccccc1SC2 | 47.2 µM (inactive) | 22.3 µM (inactive) |  | 35.4 µM (inactive) | 70.6 | 32.1 µM (inactive) | 59.7 µM (inactive) | 27.4 µM (inactive) | 46.3 µM (inactive) | 38.6 µM (inactive) | > 100 µM (inactive) | 57.5 µM (inactive) | 25.6 µM (inactive) | 54.3 µM (inactive) | 91.8 µM (inactive) | 27.5 µM (inactive) | 29.2 µM (inactive) | 56.9 µM (inactive) | > 100 µM (inactive)
9 | O=C1/C(=C/c2ccccc2)NC(=S)N1CN1CCCCC1 |  | > 100 µM (inactive) |  | > 100 µM (inactive) | > 100 | > 100 µM (inactive) | > 100 µM (inactive) | > 100 µM (inactive) |  | 15 µM (inactive) | > 100 µM (inactive) | > 100 µM (inactive) |  | > 100 µM (inactive) | > 100 µM (inactive) | > 100 µM (inactive) | > 100 µM (inactive) | > 100 µM (inactive) | 99.5 µM (inactive)
10 | CN(C(=O)C12C3C4C1C1C2C3C41C(=O)N(C)C(C)(C)C)C(C)(C)C (configuration not stated) | > 50 µM (inactive) | > 50 µM (inactive) | > 50 µM (inactive) | > 50 µM (inactive) | > 50 | > 50 µM (inactive) | > 50 µM (inactive) | > 50 µM (inactive) |  |  |  | > 50 µM (inactive) | > 50 µM (inactive) | > 50 µM (inactive) | > 50 µM (inactive) | 21.6 µM (inactive) | > 50 µM (inactive) | > 50 µM (inactive) | > 50 µM (inactive)
11 | CC1(C)CC(/C=C2/OC(=O)c3ccccc32)=C(C(N)=O)C(=O)O1 | > 100 µM (inactive) | 30.8 µM (inactive) | > 100 µM (inactive) | > 100 µM (inactive) | > 100 | > 100 µM (inactive) | > 100 µM (inactive) | > 100 µM (inactive) | > 100 µM (inactive) | 72.1 µM (inactive) | > 100 µM (inactive) | > 100 µM (inactive) | > 100 µM (inactive) | > 100 µM (inactive) | > 100 µM (inactive) | > 100 µM (inactive) | > 100 µM (inactive) | 83.9 µM (inactive) | 
12 | Cc1ccc(SC(=O)N2C(=S)N=C(NC3CCCCC3)C23CCCCC3)cc1 | > 100 µM (inactive) | 43.4 µM (inactive) | > 100 µM (inactive) | > 100 µM (inactive) | 87.9 | > 100 µM (inactive) | 57.9 µM (inactive) |  | 81.3 µM (inactive) | > 100 µM (inactive) | > 100 µM (inactive) |  | > 100 µM (inactive) | > 100 µM (inactive) | > 100 µM (inactive) | 57.9 µM (inactive) | 57.7 µM (inactive) | 46.6 µM (inactive) | 
13 | CC1(c2nc3ccccc3[nH]2)CCC(C(=O)O)C(C)(C)O1 (configuration not stated) | > 100 µM (inactive) | > 100 µM (inactive) | > 100 µM (inactive) | > 100 µM (inactive) | > 100 | > 100 µM (inactive) | > 100 µM (inactive) | > 100 µM (inactive) |  | > 100 µM (inactive) | > 100 µM (inactive) | > 100 µM (inactive) | > 100 µM (inactive) | > 100 µM (inactive) | > 100 µM (inactive) | 39.8 µM (inactive) | > 100 µM (inactive) | > 100 µM (inactive) | 
14 | O=C(C(=O)n1ccc2ccccc21)c1c[nH]c2ccccc12 | > 10 µM (inactive) | > 10 µM (inactive) | > 10 µM (inactive) | > 10 µM (inactive) | > 10 | > 10 µM (inactive) | > 10 µM (inactive) | > 10 µM (inactive) | > 10 µM (inactive) | > 10 µM (inactive) | > 10 µM (inactive) | > 10 µM (inactive) | > 10 µM (inactive) | > 10 µM (inactive) | > 10 µM (inactive) | > 10 µM (inactive) | > 10 µM (inactive) | > 10 µM (inactive) | 
15 | SC[C@@H]1COC[C@H](CS)S1 |  | > 100 µM (inactive) | > 100 µM (inactive) | > 100 µM (inactive) | > 100 | > 100 µM (inactive) | > 100 µM (inactive) | > 100 µM (inactive) | > 100 µM (inactive) | > 100 µM (inactive) | > 100 µM (inactive) | > 100 µM (inactive) | > 100 µM (inactive) | > 100 µM (inactive) | > 100 µM (inactive) | 58.9 µM (inactive) | > 100 µM (inactive) | > 100 µM (inactive) | 
16 | CN1C(=O)C2C3C=C4c5ccccc5N(c5ccccc5)C4(C2C1=O)[C@H]1C(=O)N(C)C(=O)[C@@H]31 (some centres not stated) |  | > 100 µM (inactive) | > 100 µM (inactive) | > 100 µM (inactive) |  | > 100 µM (inactive) | > 100 µM (inactive) | > 100 µM (inactive) | > 100 µM (inactive) | > 100 µM (inactive) | > 100 µM (inactive) | > 100 µM (inactive) |  | > 100 µM (inactive) | > 100 µM (inactive) | > 100 µM (inactive) | > 100 µM (inactive) | > 100 µM (inactive) | > 100 µM (inactive)
